Results on nine compounds are retold here after ChEMBL document CHEMBL1150477, “Development of angiotensin II antagonists with equipotent affinity for human AT1 and AT2 receptor subtypes” (Bioorg Med Chem Lett, 1994).

By inhibition in vivo is commonly meant the relative decrease from the control value, in per cent. For orientation: IC50 means the midpoint of a concentration-inhibition curve.

Residue numbers refer to the chain shown, from its start.

For assay [1], the system named is Canis familiaris. The assay is described as follows: In vivo inhibition of angiotensin II induced pressor response in dogs at a dose of 1.0 mg/Kg after 6 hr administered intravenously. The assay is classed as functional. To be noted: Canis lupus familiaris, iv.
In assay [2] the target is T1, Type-2 angiotensin II receptor (Rattus norvegicus, UniProt P35351).
T1 sequence (P35351 whole entry): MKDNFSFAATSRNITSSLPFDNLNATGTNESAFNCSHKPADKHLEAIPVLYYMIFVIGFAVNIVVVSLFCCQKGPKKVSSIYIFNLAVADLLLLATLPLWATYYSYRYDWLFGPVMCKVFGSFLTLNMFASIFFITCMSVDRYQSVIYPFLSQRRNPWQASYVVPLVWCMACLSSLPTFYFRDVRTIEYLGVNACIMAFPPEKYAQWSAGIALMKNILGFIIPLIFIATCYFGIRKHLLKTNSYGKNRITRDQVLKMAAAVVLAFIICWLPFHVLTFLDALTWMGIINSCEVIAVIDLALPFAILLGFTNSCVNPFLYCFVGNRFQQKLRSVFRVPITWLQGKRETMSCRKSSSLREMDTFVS
The assay is described as follows: […] inhibitory concentration against Angiotensin II, type 2 of rat midbrain membrane.

Assay [3] has as its system Canis familiaris. The assay is described as follows: In vivo inhibition of angiotensin II induced pressor response in dogs at a dose of 1.0 mg/Kg administered intravenously. To be noted: Canis lupus familiaris, iv. The assay is classed as functional.
The species entered for another assay is Oryctolagus cuniculus. The assay is described as follows: Ratio of inhibitory concentration against AT2 receptor of rat midbrain to AT1 receptor of rabbit aorta.
The target in assay [4] is T2, Type-1 angiotensin II receptor (Homo sapiens, UniProt P30556).
T2 sequence (P30556 whole entry): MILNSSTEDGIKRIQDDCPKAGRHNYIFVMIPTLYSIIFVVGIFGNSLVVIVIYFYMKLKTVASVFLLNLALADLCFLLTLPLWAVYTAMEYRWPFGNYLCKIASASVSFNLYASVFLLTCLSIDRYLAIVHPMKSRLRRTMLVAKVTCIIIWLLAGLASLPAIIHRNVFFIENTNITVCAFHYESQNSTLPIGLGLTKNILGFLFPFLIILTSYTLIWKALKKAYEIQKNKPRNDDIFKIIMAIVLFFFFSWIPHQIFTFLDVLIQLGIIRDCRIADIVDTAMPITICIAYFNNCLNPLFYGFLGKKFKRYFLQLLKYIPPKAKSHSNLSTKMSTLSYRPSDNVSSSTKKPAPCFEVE
The assay is described as follows: […] inhibitory concentration against Angiotensin II receptor, type 1 of human adrenal membrane.

Assay [5] has as its system Rattus norvegicus. The assay is described as follows: In vivo inhibition of angiotensin II induced pressor response in rats at a dose of 1.0 mg/Kg administered intravenously. To be noted: iv. The assay is classed as functional.
Assay [6] concerns the target T3, Angiotensin II receptor (AT-1) type-1 (Rattus norvegicus, UniProt P29089+P25095).
T3 sequence (P29089 whole entry): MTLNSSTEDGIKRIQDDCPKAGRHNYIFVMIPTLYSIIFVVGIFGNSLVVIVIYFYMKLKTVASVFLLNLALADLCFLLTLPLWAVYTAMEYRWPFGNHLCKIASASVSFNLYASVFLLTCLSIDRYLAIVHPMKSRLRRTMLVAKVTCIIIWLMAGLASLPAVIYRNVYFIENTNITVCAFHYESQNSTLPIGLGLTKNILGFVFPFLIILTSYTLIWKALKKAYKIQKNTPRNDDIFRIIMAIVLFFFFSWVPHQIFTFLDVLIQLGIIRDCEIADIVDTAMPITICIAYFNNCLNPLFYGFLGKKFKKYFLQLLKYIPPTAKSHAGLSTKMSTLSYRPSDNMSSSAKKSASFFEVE
T3 sequence (P25095 whole entry): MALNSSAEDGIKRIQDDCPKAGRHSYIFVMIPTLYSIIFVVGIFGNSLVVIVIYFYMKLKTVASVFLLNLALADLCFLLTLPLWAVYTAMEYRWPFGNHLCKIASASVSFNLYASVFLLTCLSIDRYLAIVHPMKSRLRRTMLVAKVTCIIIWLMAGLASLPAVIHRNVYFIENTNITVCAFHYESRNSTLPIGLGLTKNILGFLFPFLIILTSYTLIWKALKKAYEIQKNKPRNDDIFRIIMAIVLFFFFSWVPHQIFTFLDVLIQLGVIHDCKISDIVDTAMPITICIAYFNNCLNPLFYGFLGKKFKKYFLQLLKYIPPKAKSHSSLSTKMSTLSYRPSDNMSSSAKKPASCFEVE
The assay is described as follows: […] inhibitory concentration against Angiotensin II receptor, type 1 of rat adrenal membrane.

In assay [7] the target is T1, Type-2 angiotensin II receptor. The assay is described as follows: […] inhibitory concentration against AT2 receptor of rat adrenal membrane.
Assay [8] deals with T4, Type-1 angiotensin II receptor (Oryctolagus cuniculus, UniProt P34976).
T4 sequence (P34976 whole entry): T2 sequence (P30556 whole entry) with I2M, V49A, I254V, I270V, R272H, R311K, T349S, A353V
The assay is described as follows: […] inhibitory concentration against Angiotensin II receptor, type 1 of rabbit aorta membrane.

Assay [9] has as its system Rattus norvegicus. The assay is described as follows: In vivo inhibition of angiotensin II induced pressor response in rats at a dose of 1.0 mg/Kg after 6 hr administered intravenously. The format is functional. To be noted: iv.
The target of assay [10] is Angiotensin II receptor (Homo sapiens) (UniProt P30556+P50052). The assay is described as follows: Ratio of inhibitory concentration against AT2 receptor and AT1 receptor of human adrenal membrane.
Assay [11] has as its target Angiotensin II receptor (Rattus norvegicus) (UniProt P29089+P25095+P35351). The assay is described as follows: Ratio of inhibitory concentration against AT2 receptor and AT1 receptor of rat adrenal membrane.
Assay [12] has as its target T5, Type-2 angiotensin II receptor (Homo sapiens, UniProt P50052).
T5 sequence (P50052 whole entry): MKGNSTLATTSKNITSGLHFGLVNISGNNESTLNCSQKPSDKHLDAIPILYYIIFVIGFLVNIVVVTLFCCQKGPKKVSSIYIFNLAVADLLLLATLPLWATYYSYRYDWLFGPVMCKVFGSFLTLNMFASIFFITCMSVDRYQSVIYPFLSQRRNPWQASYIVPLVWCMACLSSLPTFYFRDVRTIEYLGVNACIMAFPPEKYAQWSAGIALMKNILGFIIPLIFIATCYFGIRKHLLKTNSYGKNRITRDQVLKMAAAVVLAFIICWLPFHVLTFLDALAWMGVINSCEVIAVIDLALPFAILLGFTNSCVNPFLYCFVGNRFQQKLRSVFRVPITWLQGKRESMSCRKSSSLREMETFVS
The assay is described as follows: […] inhibitory concentration against AT2 receptor of human adrenal membrane.

For `CCc1nc2ccc(NC(=O)N(C)C(C)C)cc2c(=O)n1Cc1ccc(-c2ccccc2S(=O)(=O)NC(=O)OCCC2CC2)cc1F`, the inhibition in vivo at 1 mg/kg in the assay with Canis familiaris [1] was 48%; in the assay with Canis familiaris [3], 89%; in the assay with Rattus norvegicus [5], 91%; with Rattus norvegicus [9], 62%. Further, the IC50 in [2] turned out to be 390 pM; in assay [4] it was 8100 pM; in [6] it was 500 pM; in assay [7], 770 pM; in [8], 570 pM; in [12] it was 6200 pM. Also, the Ratio in the assay filed under Oryctolagus cuniculus is 1.2; in assay [10] it was 0.87; in assay [11] it was 1.83.

Turning to `CCCCc1nc2ccc(NC(=O)N(C)C(C)C)cc2c(=O)n1Cc1ccc(-c2ccccc2S(=O)(=O)NC(=O)OCCC2CC2)cc1F`, the IC50 is 290 pM in [2]; 1200 pM in assay [4]; 230 pM in assay [6]; 360 pM in [7]; 130 pM in assay [8]; 7800 pM in [12]. The Ratio in the assay listed under Oryctolagus cuniculus turned out to be 2.5; in assay [10] it was 7.6; in [11], 1.5.

Take `CCNC(=O)Nc1ccc2nc(CC)n(Cc3ccc(-c4ccccc4S(=O)(=O)NC(=O)OCCC4CC4)cc3F)c(=O)c2c1`: the IC50 in assay [2] was determined as 560 pM; in [4], 12000 pM; in assay [6], 640 pM; in [7], 800 pM; in assay [8], 730 pM; in [12] it was 9800 pM. The values for the Ratio (in the assay listed under Oryctolagus cuniculus; in assay [10]; in assay [11]) were 0.97, 0.77 and 0.92, respectively.

Regarding `CCc1nc2ccc(NC(=O)c3ccccn3)cc2c(=O)n1Cc1ccc(-c2ccccc2S(=O)(=O)NC(=O)OCCC(C)C)cc1F`, the IC50 was determined as 1800 pM in [2]; 85000 pM in assay [4]; 1300 pM in assay [6]; 630 pM in assay [7]; 2300 pM in assay [8]; 37000 pM in [12]. For the same compound, the Ratio in the assay filed under Oryctolagus cuniculus was found to be 0.79; in assay [10], 0.47; in [11], 2.5.

For `CCCCc1nc2ccc(NC(=O)N(C)C(C)C)cc2c(=O)n1Cc1ccc(-c2ccccc2S(=O)(=O)NC(=O)OCCC(C)C)cc1F`, the IC50 came out at 210 pM in assay [2]; 1900 pM in [4]; 140 pM in assay [6]; 220 pM in assay [7]; 230 pM in assay [8]; 8000 pM in assay [12]. The Ratio was determined as 1.3 in the assay listed under Oryctolagus cuniculus, 4.4 in assay [10] and 1.5 in [11].

Take `CCCc1nc2ccc(NC(=O)NC(C)C)cc2c(=O)n1Cc1ccc(-c2ccccc2S(=O)(=O)NC(=O)c2ccc(CC)cc2F)cc1F`: the IC50 turned out to be 280 pM in assay [2]; 840 pM in assay [4]; 110 pM in assay [6]; 210 pM in assay [7]; 200 pM in [8]; 4400 pM in [12]. Moreover, the Ratio in the assay filed under Oryctolagus cuniculus came to 1.4; in [10], 5.3; in assay [11], 2.3.

Regarding `CCc1nc2ccc(NC(=O)NC(C)C)cc2c(=O)n1Cc1ccc(-c2ccccc2S(=O)(=O)NC(=O)OCCC2CC2)cc1F`, the IC50 stood at 560 pM in assay [2]; 7200 pM in assay [4]; 640 pM in assay [6]; 800 pM in assay [7]; 920 pM in [8]; 6500 pM in assay [12]. Also, the Ratio in the assay listed under Oryctolagus cuniculus is 0.61; in assay [10], 0.9; in assay [11], 0.92.

As for `CCc1ccc(C(=O)NS(=O)(=O)c2ccccc2-c2ccc(Cn3c(CC)nc4ccc(NC(=O)N(C)C(C)C)cc4c3=O)c(F)c2)cc1`, the IC50 was 250 pM in assay [2]; 5800 pM in assay [4]; 140 pM in assay [6]; 930 pM in assay [7]; 540 pM in [8]; 8900 pM in assay [12]. Also, the Ratio in the assay listed under Oryctolagus cuniculus was 1.6; in assay [10] it was 1.6; in [11], 2.5.

Turning to `CCc1nc2ccc(NC(=O)N(C)C(C)C)cc2c(=O)n1Cc1ccc(-c2ccccc2S(=O)(=O)NC(=O)OCC=C(C)C)cc1F`, the IC50 in assay [2] came to 750 pM; in assay [4] it was 14700 pM; in [6], 390 pM; in assay [7], 1040 pM; in [8] it was 770 pM; in [12], 9300 pM. The Ratio in the assay listed under Oryctolagus cuniculus was 0.97; in assay [10] it was 0.62; in assay [11], 2.7.
